Experimental data reported in US20240148821A1, “PHARMACEUTICAL USE OF CYCLIC PEPTIDE COMPOUND” (CHUGAI SEIYAKU KABUSHIKI KAISHA, priority 2021, published 2024).
Numbered stars: 1 amine (or outer) side, 2 acyl side, 3 side chain; on linkers, the order of the positions; unused ones are H or OH. Bridge positions count the residues as written; N and C are the ends. Square brackets hold non-standard residues; d marks the D form. Peptide text beside a SMILES is read from it. * marks the point of attachment. hPhe(3-Cl-4-CF3) = N[C@@H](CCc1ccc(C(F)(F)F)c(Cl)c1)C(=O)O; hPhe(3-F,4-CF3) = N[C@@H](CCc1ccc(C(F)(F)F)c(F)c1)C(=O)O; NEtPhe(4-CF3) = CCN[C@@H](Cc1ccc(C(F)(F)F)cc1)C(=O)O; Phe(4-CHF2) = N[C@@H](Cc1ccc(C(F)F)cc1)C(=O)O; NEtPhe(4-Me) = CCN[C@@H](Cc1ccc(C)cc1)C(=O)O; NMePhe(4-Cl) = CN[C@@H](Cc1ccc(Cl)cc1)C(=O)O; NMePhe(4-Me) = CN[C@@H](Cc1ccc(C)cc1)C(=O)O; NMedβ3hAla = C[C@H](CC(=O)[*:2])N(C)[*:1]; NMeGly(cPent) = CN[C@H](C(=O)O)C1CCCC1; Phe(3-I) = N[C@@H](Cc1cccc(I)c1)C(=O)O; NMeCha = CN[C@@H](CC1CCCCC1)C(=O)O; Hyp = O=C(O)[C@@H]1C[C@@H](O)CN1; NMeChg = CN[C@H](C(=O)O)C1CCCCC1; NMeI = CC[C@H](C)[C@H](NC)C(=O)O; NMeT = CN[C@H](C(=O)O)[C@@H](C)O; NMeE = CN[C@@H](CCC(=O)O)C(=O)O; NMeD = CN[C@@H](CC(=O)O)C(=O)O; NMeL = CN[C@@H](CC(C)C)C(=O)O; NMeV = CN[C@H](C(=O)O)C(C)C; d(β3hA) = C[C@@H](N)CC(=O)O; NMeS = CN[C@@H](CO)C(=O)O; dPip = O=C(O)[C@H]1CCCCN1; Morpholide = C1CN(*)CCO1; NMeA = CN[C@@H](C)C(=O)O; NMeAib = CNC(C)(C)C(=O)O; Nle = CCCC[C@H](N)C(=O)O; Piperidide = C1CCN(*)CC1; Pyrrolidide = C1CCN(*)C1; Ac5c = NC1(C(=O)O)CCCC1; Aze = O=C(O)[C@@H]1CCN1; Cyclobutyl = C1CC(*)C1; NBuGly = CCCCNCC(=O)O; Sar = CNCC(=O)O; Propyl = CCC*

Key:
[1] = molecular target: protein-protein interaction between Kras and SOS1 (biotin-tagged human Kras loaded with GDP, His-tagged human SOS1) (Homo sapiens (Human), UniProt P01116, G12D); experiment: Protein-protein interaction inhibition between Kras and SOS1 (KrasG12D-SOS PPI) using AlphaScreen; format: biochemical; details: AlphaScreen; biotin-tagged human Kras loaded with GDP, His-tagged human SOS1; read-out: KRAS G12D-SOS PPI IC50;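 also: kras produced in E. coli, Ni-coupled donor beads and streptavidin acceptor beads, excitation 680 nm with emission detected at 520–620 nm via singlet oxygen transfer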
[2] = tested on: Human pancreatic cancer cell line AsPC-1 (G12D mutation Kras); experiment: AsPC-1 cell growth inhibition (AsPC-1 CGI); format: cell-based; details: read-out: AsPC-1 cell growth inhibition, 50% growth inhibitory concentration (IC50 value); 96 hours, CellTiter-Glo, values classified in ranges
Procedure: Test compounds were serially dilated with dimethyl sulfoxide, and 200 nL was then dispensed to a U-bottom 96-well plate using Labcyte Echo. […] The cell suspension was dispensed to a. plate containing a test compound at 100 μL per well and incubated at 37° C. in a 5% carbon dioxide gas incubator. 96 hours later, 80 μL of CellTiter-Glo (Promega) was added to each well and fluorescence was measured.

Compound | IC50 [1] [nM] | IC50 [2] [nM]
CC[C@H](C)[C@@H]1NC(=O)[C@H](CC(C)C)N(C)C(=O)C[C@@H](C)N(C)C(=O)[C@H]([C@@H](C)CC)NC(=O)C(C)(C)N(C)C(=O)[C@H](CC(C)C)NC(=O)[C@H](CCc2ccc(C(F)(F)F)c(F)c2)NC(=O)CN(C)C(=O)[C@H](Cc2ccc(Cl)cc2)N(C)C(=O)CN(C)C(=O)CN(C)C1=O [Compound 800] (cyclo(I[Sar][Sar][NMePhe(4-Cl)][Sar][hPhe(3-F,4-CF3)]L[NMeAib]I[NMedβ3hAla][NMeL])) | 86 | > 500
CC[C@H](C)[C@@H]1NC(=O)[C@H](CC(C)C)N(C)C(=O)C[C@@H](C)NC(=O)[C@H](C(C)C)N(C)C(=O)C2(CCCC2)NC(=O)[C@@H]2CCCN2C(=O)[C@H](CCc2ccc(C(F)(F)F)c(Cl)c2)NC(=O)CN(C)C(=O)[C@H](CC2CCCCC2)N(C)C(=O)[C@@H]2CCN2C(=O)[C@H](CCC(=O)NC)N(C)C1=O [Compound 810] (cyclo([Ac5c][NMeV][d(β3hA)][NMeL]I[NMeE](NHMe)[Aze][NMeCha][Sar][hPhe(3-Cl-4-CF3)]P)) | 49 | > 500
CCO[C@@H]1C[C@H]2C(=O)NC3(CCCC3)C(=O)N(C)[C@@H](C3CCCC3)C(=O)N(C)[C@H](C)CC(=O)N(C)[C@@H](CC(C)C)C(=O)N[C@@H]([C@@H](C)CC)C(=O)N(C)[C@@H](C)C(=O)N3CC[C@H]3C(=O)N(CC)[C@@H](Cc3ccc(C(F)(F)F)cc3)C(=O)N(C)CC(=O)N[C@@H](CCc3ccc(C(F)(F)F)c(Cl)c3)C(=O)N2C1 [Compound 816] (cyclo([Ac5c][NMeGly(cPent)][NMedβ3hAla][NMeL]I[NMeA][Aze][NEtPhe(4-CF3)][Sar][hPhe(3-Cl-4-CF3)][Hyp](Et))) | 3.9 | ≤ 20
CCCC[C@@H]1NC(=O)[C@H](Cc2cccc(I)c2)NC(=O)CN(C)C(=O)[C@H](Cc2ccc(C)cc2)N(C)C(=O)[C@@H]2CCN2C(=O)[C@H](C)N(C)C(=O)[C@H]([C@@H](C)CC)NC(=O)[C@H](CC(C)C)N(C)C(=O)C[C@@H](C(=O)N2CCCCC2)N(C)C(=O)[C@H](CC(C)C)NC(=O)[C@H]2CCCN2C1=O [Compound 822] ([NMeL]I[NMeA][Aze][NMePhe(4-Me)][Sar][Phe(3-I)][Nle][dP]L[NMeD]-Piperidide; lactam N-11) | 150 | > 500
CC[C@H](C)[C@@H]1NC(=O)[C@H](C)N(C)C(=O)C[C@@H](C(=O)N2CCCCC2)N(C)C(=O)[C@H](C(C)C)N(C)C(=O)C2(CCCC2)NC(=O)[C@@H]2CCCN2C(=O)[C@H](CCc2ccc(C(F)(F)F)c(Cl)c2)NC(=O)[C@H]2CCCCN2C(=O)[C@H](CC2CCCCC2)N(C)C(=O)[C@@H]2CCCN2C(=O)CN(C)C1=O [Compound 823] ([NMeA]I[Sar]P[NMeCha][dPip][hPhe(3-Cl-4-CF3)]P[Ac5c][NMeV][NMeD]-Piperidide; lactam N-11) | 16 | > 500
CC[C@H](C)[C@@H]1NC(=O)[C@H](CC(C)C)N(C)C(=O)C[C@@H](C(=O)N(C)C)N(C)C(=O)[C@H]([C@@H](C)CC)N(C)C(=O)[C@H](C)NC(=O)[C@@H]2CCCN2C(=O)[C@H](CCc2ccc(C(F)(F)F)c(Cl)c2)NC(=O)CN(C)C(=O)[C@H](Cc2ccc(C)cc2)N(C)C(=O)[C@@H]2CCN2C(=O)[C@H](C)N(C)C1=O [Compound 829] ([NMeL]I[NMeA][Aze][NMePhe(4-Me)][Sar][hPhe(3-Cl-4-CF3)]PA[NMeI][NMeD]-NMe2; lactam N-11) | 2.3 | > 500
CC[C@H](C)[C@@H]1NC(=O)[C@H](CC(C)C)N(C)C(=O)C[C@@H](C(=O)N2CCCCC2)N(C)C(=O)[C@H](C2CCCC2)N(C)C(=O)C2(CCCC2)NC(=O)[C@@H]2CCCN2C(=O)[C@H](CCc2ccc(C(F)(F)F)c(Cl)c2)NC(=O)CN(C)C(=O)[C@H](COC2CCC2)N(C)C(=O)[C@@H]2CCN2C(=O)[C@H](C)N(C)C1=O [Compound 835] ([NMeL]I[NMeA][Aze][NMeS](Cyclobutyl)[Sar][hPhe(3-Cl-4-CF3)]P[Ac5c][NMeGly(cPent)][NMeD]-Piperidide; lactam N-11) | 0.54 | ≤ 20
CCCOC[C@H]1C(=O)N(C)CC(=O)N[C@@H](CCc2ccc(C(F)(F)F)c(Cl)c2)C(=O)N2CCC[C@H]2C(=O)NC2(CCCC2)C(=O)N(C)[C@@H](C2CCCC2)C(=O)N(C)[C@H](C(=O)N2CCCC2)CC(=O)N(C)[C@@H](CC(C)C)C(=O)N[C@@H]([C@@H](C)CC)C(=O)N(C)[C@@H](C)C(=O)N2CC[C@H]2C(=O)N1C [Compound 836] ([NMeL]I[NMeA][Aze][NMeS](Propyl)[Sar][hPhe(3-Cl-4-CF3)]P[Ac5c][NMeGly(cPent)][NMeD]-Pyrrolidide; lactam N-11) | 0.66 | ≤ 20
CC[C@H](C)[C@@H]1NC(=O)[C@H](CC(C)C)N(C)C(=O)C[C@@H](C(=O)N(C)C)N(C)C(=O)[C@H]([C@@H](C)CC)N(C)C(=O)C2(CCCC2)NC(=O)[C@@H]2CCCN2C(=O)[C@H](CCc2ccc(C(F)(F)F)c(Cl)c2)NC(=O)CN(C)C(=O)[C@H](Cc2ccc(C)cc2)N(C)C(=O)[C@@H]2CCN2C(=O)[C@H](C)NC1=O [Compound 840] ([NMeL]IA[Aze][NMePhe(4-Me)][Sar][hPhe(3-Cl-4-CF3)]P[Ac5c][NMeI][NMeD]-NMe2; lactam N-11) | 1.2 | ≤ 20
CC[C@H](C)[C@@H]1NC(=O)[C@H](C)N(C)C(=O)C[C@@H](C)N(C)C(=O)[C@H](CC(C)C)NC(=O)C(C)(C)N(C)C(=O)[C@H](CC(C)C)NC(=O)[C@H](CCc2ccc(C(F)(F)F)c(F)c2)NC(=O)CN(C)C(=O)[C@H](CC2CCCCC2)N(C)C(=O)CN(C)C(=O)CN(C)C1=O [Compound 842] (cyclo(I[Sar][Sar][NMeCha][Sar][hPhe(3-F,4-CF3)]L[NMeAib]L[NMedβ3hAla][NMeA])) | 43 | > 500
CCCCN1CC(=O)NC2(CCCC2)C(=O)N(C)[C@@H](C2CCCCC2)C(=O)N(C)[C@H](C(=O)N2CCCCC2)CC(=O)N(C)[C@@H](CC(C)C)C(=O)N[C@@H]([C@@H](C)CC)C(=O)N(C)CC(=O)N(C)CC(=O)N(C)[C@@H](CC2CCCCC2)C(=O)N(C)CC(=O)N[C@@H](CCc2ccc(C(F)(F)F)c(Cl)c2)C1=O [Compound 848] ([NMeL]I[Sar][Sar][NMeCha][Sar][hPhe(3-Cl-4-CF3)][NBuGly][Ac5c][NMeChg][NMeD]-Piperidide; lactam N-11) | 16 | > 500
CC[C@H](C)[C@@H]1NC(=O)[C@H](CC(C)C)N(C)C(=O)C[C@@H](C)N(C)C(=O)[C@H](CC(C)C)NC(=O)C(C)(C)N(C)C(=O)[C@H](Cc2ccc(C(F)F)cc2)NC(=O)[C@H](CCc2ccc(C(F)(F)F)c(F)c2)NC(=O)CN(C)C(=O)[C@H](CC2CCCCC2)N(C)C(=O)CN(C)C(=O)CN(C)C1=O [Compound 858] (cyclo(I[Sar][Sar][NMeCha][Sar][hPhe(3-F,4-CF3)][Phe(4-CHF2)][NMeAib]L[NMedβ3hAla][NMeL])) | 330 | > 500
CC[C@H](C)[C@@H]1NC(=O)[C@H](CC(C)C)N(C)C(=O)C[C@@H](C(=O)N2CCCCC2)N(C)C(=O)[C@H](C(C)C)N(C)C(=O)C2(CCCC2)NC(=O)[C@@H]2CCCN2C(=O)[C@H](CCc2ccc(C(F)(F)F)c(Cl)c2)NC(=O)CN(C)C(=O)[C@H]([C@@H](C)O)N(C)C(=O)[C@@H]2CCN2C(=O)[C@H](C)N(C)C1=O [Compound 862] ([NMeL]I[NMeA][Aze][NMeT][Sar][hPhe(3-Cl-4-CF3)]P[Ac5c][NMeV][NMeD]-Piperidide; lactam N-11) | 2.7 | > 500
CC[C@H](C)[C@@H]1NC(=O)[C@H](CC(C)C)N(C)C(=O)C[C@@H](C(=O)N(C)C)N(C)C(=O)[C@H]([C@@H](C)CC)N(C)C(=O)C2(CCCC2)NC(=O)[C@@H]2CCCN2C(=O)[C@H](CCc2ccc(C(F)(F)F)c(Cl)c2)NC(=O)CN(C)C(=O)[C@H](Cc2ccc(C)cc2)N(CC)C(=O)[C@@H]2CCN2C(=O)[C@H](C)N(C)C1=O [Compound 866] ([NMeL]I[NMeA][Aze][NEtPhe(4-Me)][Sar][hPhe(3-Cl-4-CF3)]P[Ac5c][NMeI][NMeD]-NMe2; lactam N-11) | 1.2 | ≤ 20
CC[C@H](C)[C@@H]1NC(=O)[C@H](CC(C)C)N(C)C(=O)C[C@@H](C(=O)N2CCOCC2)N(C)C(=O)[C@H](C2CCCC2)N(C)C(=O)C2(CCCC2)NC(=O)[C@@H]2CCCN2C(=O)[C@H](CCc2ccc(C(F)(F)F)c(F)c2)NC(=O)CN(C)C(=O)[C@H](C2CCCC2)N(C)C(=O)[C@@H]2CCN2C(=O)[C@H](C)N(C)C1=O [Compound 871] ([NMeL]I[NMeA][Aze][NMeGly(cPent)][Sar][hPhe(3-F,4-CF3)]P[Ac5c][NMeGly(cPent)][NMeD]-Morpholide; lactam N-11) | 0.78 | ≤ 20
CC[C@H](C)[C@@H]1NC(=O)[C@H](CC(C)C)N(C)C(=O)C[C@@H](C(=O)N2CCCCC2)N(C)C(=O)[C@H](CC(C)C)N(C)C(=O)C2(CCCC2)NC(=O)[C@@H]2C[C@@H](O)CN2C(=O)[C@H](CCc2ccc(C(F)(F)F)c(F)c2)NC(=O)CN(C)C(=O)[C@H](CC2CCCCC2)N(C)C(=O)CN(C)C(=O)CN(C)C1=O [Compound 875, (3S,9S,18S,21S,25S,28S,34S,36R)-9-(cyclohexylmethyl)-3-[2-[3-fluoro-4-(trifluoromethyl)phenyl]ethyl]-36-hydroxy-21,28-diisobutyl-7,10,13,16,22,26,29-heptamethyl-18-[(1S)-1-methylpropyl]-25-(piperidine-1-carbonyl)spiro[1,4,7,10,13,16,19,22,26,29,32-undecazabicyclo[32.3.0]heptatriacontane-31,1′-cyclopentane]-2,5,8,11,14,17,20,23,27,30,33-undecone] ([NMeL]I[Sar][Sar][NMeCha][Sar][hPhe(3-F,4-CF3)][Hyp][Ac5c][NMeL][NMeD]-Piperidide; lactam N-11) | 3.1 | > 500
